In patent publication US20230278972A1, “SUBSTITUTED HALOALKYL SULFONANILIDE HERBICIDES” (FMC Corporation, priority 2020, published 2023):

Tests used:
Format in all cases: in vivo
[1] = tested on: Foxtail, Giant (giant foxtail, Setaria faberi); assay: Test A1 preemergence, Foxtail, Giant
Outline: (§1)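 Test compounds were formulated in a non-phytotoxic solvent mixture containing a surfactant. For preemergence, seeds sown in a loam soil–sand blend received a directed soil spray. For postemergence, potted plants in the same soil, 2 to 10 cm tall at the one- to two-leaf stage, were sprayed.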

[2] = tested on: goosegrass (Eleusine indica); assay: Test A1 preemergence, goosegrass
Outline: as §1

[3] = tested on: Oat, Wild (wild oat, Avena fatua); assay: Test A1 preemergence, Oat, Wild
Outline: as §1

[4] = tested on: Pigweed, Palmer (palmer amaranth, palmer pigweed, Amaranthus palmeri); assay: Test A1 preemergence, Pigweed, Palmer
Outline: as §1

soybean (Glycine max) = assay: Test A1 preemergence, soybean
Outline: as §1

[5] = tested on: blackgrass (Alopecurus myosuroides); assay: Test A1 postemergence, blackgrass; conditions: Postemergence, 0 to 100 scale (0 no effect, 100 complete control)
Outline: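 Pre: seeds in loam/sand blend, directed soil spray. Post: potted plants, same soil, 2–10 cm, 1–2 leaf stage. Chemicals in non-phytotoxic solvent + surfactant for both.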

corn (Zea mays) = assay: Test A1 postemergence, corn; conditions: Postemergence
Outline: as §1

[6] = tested on: barnyardgrass (Echinochloa crus-galli); assay: Test B1 flooded paddy test, barnyardgrass; conditions: 250 g ai/ha, Flood, applied to paddy water, 2-leaf stage, visually evaluated after 10 to 14 days
Description: (§2) A dash (-) response means no test result.

[7] = tested on: ducksalad (Heteranthera limosa); assay: Test B1 flooded paddy test, ducksalad; conditions: 250 g ai/ha, Flood, applied to paddy water, 2-leaf stage, visually evaluated after 10 to 14 days
Description: as §2

[8] = 31 g ai/ha, 0 to 100 scale (0 no effect, 100 complete control)
[9] = 125 g ai/ha, 0 to 100 scale, 0 no effect, 100 complete control
[10] = 31 g ai/ha, 0 to 100 scale (0 no effect, 100 complete control), 10 days

SMILES | Plant response rating, Foxtail, Giant [1, 8] | Plant response rating, Foxtail, Giant [1, 9] | Plant response rating, Goosegrass [2, 8] | Plant response rating, Goosegrass [2, 9] | Plant response rating, Oat, Wild [3, 8] | Plant response rating, Oat, Wild [3, 9] | Plant response rating, Pigweed, Palmer [4, 8] | Plant response rating, Pigweed, Palmer [4, 9] | Plant response rating, Soybean (soybean (Glycine max); [8]) | Plant response rating, Soybean (soybean (Glycine max); [9]) | Plant response rating, Blackgrass ([5]; 31 g ai/ha, 10 days) | Plant response rating, Blackgrass ([5]; 125 g ai/ha) | Plant response rating, Corn (corn (Zea mays); [10]) | Plant response rating, Corn (corn (Zea mays); 125 g ai/ha, 0 to 100 scale) | Plant response rating, Barnyardgrass (0 to 100 scale, 0 is no effect, 100 is complete control) [6] | Plant response rating, Ducksalad (0 to 100 scale, 0 is no effect, 100 is complete control) [7]
Cc1cc(C)c(N(C(=O)OC(C)C)S(=O)(=O)C(F)(F)F)cc1C1=NOC2CCCC12 (centres unmarked) [Compound 295] | 0 | 40 | 80 | 90 | 0 | 0 | 0 | 80 | 0 | 0 | 0 | 0 | 0 | 0 | 95 | 0
Cc1cc(C2CC2)c(C2=NOC3CCCC23)cc1NS(=O)(=O)C(F)(F)F (centres unmarked) [Compound 307] | 50 | 100 | 80 | 100 | 0 | 40 | 30 | 80 | 0 | 30 | 0 | 10 | 0 | 0 | 60 | 70
Cc1cc(C)c(N(COC(=O)C(C)(C)C)S(=O)(=O)C(F)(F)F)cc1C1=NOC2(C)CCCC12 (centres unmarked) [Compound 341] | 0 | 50 | 30 | 100 | 0 | 0 | 0 | 20 | 0 | 0 | 0 | 0 | 0 | 0 | 95 | 45
Cc1cc(C)c(N(COC(=O)C(C)(C)C)S(=O)(=O)C(F)(F)F)cc1C1=NOC2OCCC12 (centres unmarked) [Compound 352] | 30 | 100 | 90 | 100 | 0 | 20 | 70 | 100 | 30 | 40 | 0 | 20 | 20 | 80 | 90 | 65
CCC1ON=C(c2cc(NS(=O)(=O)C(F)(F)F)c(C)cc2C)C1CC (centres unmarked) [Compound 343] | 90 | 100 | 90 | 100 | 0 | 70 | 40 | 90 | 50 | 60 | 10 | 30 | 10 | 40 | 85 | 45
CCC1ON=C(c2cc(NS(=O)(=O)C(F)(F)F)c(C)cc2C)C1CC (centres unmarked) [Compound 346] | 60 | 100 | 90 | 100 | 30 | 80 | 100 | 100 | 50 | 50 | 0 | 60 | 20 | 60 | 90 | 65
Cc1cc(C)c(N(COC(=O)C(C)(C)C)S(=O)(=O)C(F)(F)F)cc1C(=O)N1CCC(c2ccccc2)CC1 [Compound 364] | 0 | 0 | 0 | 0 | 0 | 0 | 0 | 0 | 0 | 0 | 0 | 0 | 0 | 0 | 0 | 0
Cc1c(NS(=O)(=O)C(F)(F)F)cc(C(=O)N2CCC(F)(F)CC2)c(C)c1C [Compound 357] | 10 | 90 | 80 | 100 | 0 | 0 | 40 | 100 | 0 | 20 | 0 | 0 | 0 | 0 | 45 | 60
COc1cc(C)c(NS(=O)(=O)C(F)(F)F)cc1C1=NOC2CCCC12 (centres unmarked) [Compound 312] | 20 | 30 | 0 | 50 | 0 | 0 | 0 | 0 | 0 | 50 | 0 | 0 | 0 | 0 | 0 | 0
Cc1c(C(=O)N2CCC(Cl)CC2)cc(N(COC(=O)C(C)(C)C)S(=O)(=O)C(F)(F)F)c(C)c1C [Compound 359] | 0 | 90 | 0 | 90 | 0 | 0 | 0 | 20 | 0 | 30 | 0 | 0 | 0 | 0 | 95 | 25
Cc1cc(C2CC2)c(C2=NOC3CCCC23)cc1N(COC(=O)C(C)(C)C)S(=O)(=O)C(F)(F)F (centres unmarked) [Compound 355] | 0 | 60 | 20 | 90 | 0 | 0 | 0 | 70 | 20 | 30 | 0 | 0 | 0 | 20 | 60 | 45
CCc1cc(C)c(NS(=O)(=O)C(F)(F)F)cc1C1=NOC2CCCC12 (centres unmarked) [Compound 305] | 20 | 90 | 90 | 90 | 20 | 60 | 40 | 60 | 0 | 40 | 0 | 0 | 0 | 0 | 90 | 90
Cc1c(NS(=O)(=O)C(F)(F)F)cc(C(=O)N(C)C)c(C)c1Cl [Compound 287] | 0 | 30 | 70 | 90 | 0 | 10 | 0 | 90 | 0 | 30 | 0 | 0 | 0 | 0 | 0 | 75
Cc1cc(C)c(C2=NOC3CCCCCC23)cc1NS(=O)(=O)C(F)(F)F (centres unmarked) [Compound 292] | 50 | 100 | 80 | 100 | 0 | 50 | 60 | 60 | 0 | 40 | 0 | 0 | 0 | 0 | 0 | 95
